Here are results for eight compounds from ChEMBL document CHEMBL2021793, “Synthesis, biological evaluation and structure-activity relationships of glycyrrhetinic acid derivatives as novel anti-hepatitis B virus agents” (Bioorg Med Chem Lett, 2012).

A short description of data set [1]: Cytotoxicity against human HepG2(2.2.15) cells. In kind it is cell-based.
The subject of data set [2] is Hepatitis B virus. The data set can be described thus: Antiviral activity against Hepatitis B virus infected in human HepG2(2.2.15) cells assessed as reduction in hepatitis B surface antigen release. In kind it is functional, organism-based.
Data set [3] in a line: Selectivity index, ratio of CC50 for human HepG2(2.2.15) cells to IC50 for HBV by hepatitis B surface antigen release detection assay. In kind it is functional.
Data set [4] deals with Hepatitis B virus. In words: Antiviral activity against Hepatitis B virus infected in human HepG2(2.2.15) cells assessed as reduction in hepatitis B e-antigen release. In kind it is functional, organism-based.
Data set [5] can be described thus: Selectivity index, ratio of CC50 for human HepG2(2.2.15) cells to IC50 for HBV by hepatitis B e-antigen release detection assay. In kind it is functional.
In data set [6] the test system is Hepatitis B virus. In words: Antiviral activity against Hepatitis B virus infected in human HepG2(2.2.15) cells assessed as reduction in viral DNA replication. In kind it is functional, organism-based.
Data set [7] is described as follows: Selectivity index, ratio of CC50 for human HepG2(2.2.15) cells to IC50 for HBV by viral DNA replication detection assay. In kind it is functional.

For `COc1cc(/C=C/C(=O)O[C@H]2CC[C@]3(C)[C@H]4CC=C5[C@@H]6C[C@@](C)(C(=O)OCC(N)=O)CC[C@]6(C)CC[C@@]5(C)[C@]4(C)CC[C@H]3C2(C)C)cc(OC)c1OC`, the CC50 in data set [1] is > 481 µM. Further, the results for the IC50 in the data set on Hepatitis B virus [2], in the data set on Hepatitis B virus [4] and with Hepatitis B virus [6] were 230 µM, 252 µM and > 120 µM, respectively. The figures for the “Ratio CC50/IC50” value in data set [3] and in data set [5] were >2.1 and >1.9, respectively.

Consider `CCCC(=O)O[C@H]1CC[C@]2(C)[C@H]3C(=O)C=C4[C@@H]5C[C@@](C)(C(=O)O)CC[C@]5(C)CC[C@@]4(C)[C@]3(C)CC[C@H]2C1(C)C`, for which the midpoint of cytotoxicity in data set [1], the CC50, lay at 119 µM. Further, the figures for the IC50 with Hepatitis B virus [2], in the data set with Hepatitis B virus [4] and in the data set with Hepatitis B virus [6] were 370 µM, 37 µM and 48.2 µM, respectively. Further, the results for the “Ratio CC50/IC50” value in data set [5] and in data set [7] were 3.2 and 2.5, respectively.

The compound `CCC(=O)O[C@H]1CC[C@]2(C)[C@H]3C(=O)C=C4[C@@H]5C[C@@](C)(C(=O)O)CC[C@]5(C)CC[C@@]4(C)[C@]3(C)CC[C@H]2C1(C)C` [GLYCYRRHETINIC ACID PROPIONATE] had a CC50 in data set [1] of 99.6 µM. Moreover, the IC50 in the data set on Hepatitis B virus [2] came out at 1360 µM; in the data set with Hepatitis B virus [4], 49.2 µM; in the data set with Hepatitis B virus [6], 44.4 µM. Further, the “Ratio CC50/IC50” value was found to be 2 in data set [5] and 2.2 in data set [7].

In data set [1], `CC1(C)[C@@H](O)CC[C@]2(C)[C@H]3C(=O)C=C4[C@@H]5C[C@@](C)(C(=O)OCC(N)=O)CC[C@]5(C)CC[C@@]4(C)[C@]3(C)CC[C@@H]12` displayed a CC50 of 55.3 µM. Also, the IC50 in the data set on Hepatitis B virus [2] is 40 µM; with Hepatitis B virus [4], > 1120 µM; in the data set with Hepatitis B virus [6], 28.8 µM. Further, the “Ratio CC50/IC50” value is given as 1.4 in data set [3] and 1.9 in data set [7].

As for `CC1(C)[C@@H](O)CC[C@]2(C)[C@H]3C(=O)C=C4[C@@H]5C[C@@](C)(C(=O)OCc6ccc([N+](=O)[O-])cc6)CC[C@]5(C)CC[C@@]4(C)[C@]3(C)CC[C@@H]12`, the CC50 in data set [1] was > 1330 µM. Further, the figures for the IC50 in the data set with Hepatitis B virus [2], with Hepatitis B virus [4] and in the data set with Hepatitis B virus [6] were 606 µM, > 1330 µM and 8.9 µM, respectively. Besides, the “Ratio CC50/IC50” value in data set [3] was >2.2; in data set [7], >149.2.

Consider `C[C@H](Cn1cnc2c(N)ncnc21)OCP(=O)(O)O` [TENOFOVIR ANHYDROUS], for which the cytotoxic concentration (CC50) in data set [1] is > 1760 µM. Further, the results for the “Ratio CC50/IC50” value in data set [3], in data set [5] and in data set [7] were >1.2, >1.4 and >1973.4, respectively. In addition, the IC50 with Hepatitis B virus [6] amounted to 0.89 µM.

`COc1cc(/C=C/C(=O)O[C@H]2CC[C@]3(C)[C@H]4C(=O)C=C5[C@@H]6C[C@@](C)(C(=O)O)CC[C@]6(C)CC[C@@]5(C)[C@]4(C)CC[C@H]3C2(C)C)cc(OC)c1OC`: the CC50 in data set [1] is > 1160 µM. For the same compound, the IC50 in the data set on Hepatitis B virus [2] was > 1160 µM; in the data set on Hepatitis B virus [4] it was 232 µM; with Hepatitis B virus [6], 120 µM. In addition, the results for the Ratio CC50/IC50 in data set [5] and in data set [7] were > 5 and >9.7, respectively.

In data set [1], `CCOC(=O)CCCOC(=O)[C@@]1(C)CC[C@]2(C)CC[C@]3(C)C(=CC(=O)[C@@H]4[C@@]5(C)CC[C@H](O)C(C)(C)[C@@H]5CC[C@]43C)[C@@H]2C1` came in with a CC50 of 53.3 µM. The IC50 worked out at 38.2 µM in the data set with Hepatitis B virus [2], 56.8 µM in the data set on Hepatitis B virus [4] and 30.9 µM in the data set on Hepatitis B virus [6]. Besides, the figures for the “Ratio CC50/IC50” value in data set [3] and in data set [7] were 1.4 and 1.7, respectively.

A word on the CC50: it is the concentration giving 50% cytotoxicity. Higher therefore signals lower toxicity to the cells. The IC50 is the point on the concentration scale where inhibition reaches its midpoint.
